Laboratory results reported in patent publication US12459951B2, “Compounds that interact with RAS superfamily proteins for treatment of cancers, inflammatory diseases, rasopathies, and fibrotic disease” (SHY Therapeutics, LLC, priority 2022, dated 2025).

Experiments:
[1] = system: JNK phosphorylation; assay: JNK Activation Assay (western blot), Panc-1; assay type: cell-based, human; details: at 10 μM, Panc-1 pancreatic cancer cell line; starred symbols = activation
Procedure, shortened: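 KRas G12C Panc-1 cells treated 6 h at 37 °C with compound at 10 μM (0.3% DMSO), or serial dilutions for IC50. In Method 1 cells were serum-starved overnight (0.5% FBS) then stimulated with 1.5 ng/ml EGF for 15 min; Method 2 used 10% FBS without stimulation. Phospho-JNK (Thr183/Tyr185) measured by western blot.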

[2] = system: MAPK p38 phosphorylation; assay: MAPK p38 Activation Assay (western blot), Panc-1; assay type: cell-based, human; details: at 10 μM, Panc-1 pancreatic cancer cell line; starred symbols = activation
Procedure, shortened: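 Panc-1 cells (KRas G12D) were treated with compound for 6 h at 37 °C, at 10 μM or as serial dilutions for IC50, with 0.3% DMSO. Method 1 used overnight serum-starved cells (0.5% FBS) stimulated with 1.5 ng/ml EGF for 15 min; Method 2 used unstimulated cells in 10% FBS. Phospho-p38 (Thr180/Tyr182) was detected by western blot.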

[3] = molecular target: T1, cdc42 (Homo sapiens, UniProt P60953); assay: Cdc42 GTP Binding Domain Inhibition Assay; details: read-out: Cdc42: % inh.
T1 construct: made in house
Procedure, shortened: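 His-tagged cdc42 or Rheb (10–30 μg/mL) bound to nickel plates, then exposed to compound (20 μM, or serial dilutions for IC50) in 1% DMSO for 3 h at room temperature, ±Sos during final hour. Cy3- or Cy5-GTP (100 nM) added for 45 min; bound labelled GTP read by fluorescence after washes.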

T1 sequence (P60953 whole entry, the tested form may be a part): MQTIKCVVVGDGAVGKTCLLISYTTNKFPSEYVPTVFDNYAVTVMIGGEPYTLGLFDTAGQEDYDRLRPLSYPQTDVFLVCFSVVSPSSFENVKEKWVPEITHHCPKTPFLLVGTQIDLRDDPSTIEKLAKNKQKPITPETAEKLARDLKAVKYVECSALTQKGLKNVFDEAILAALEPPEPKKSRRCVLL

Compound | inhibition at 20 µM [3] [%] | % inh of JNK in Panc-1 [1] | % inh of MAPK p38 in Panc-1 [2]
Cc1c(-c2ccn(C(C)C)n2)cn2nc(-c3nccn3C)nc(Nc3cnccn3)c12 [Compound 62, 6-(1-Isopropyl-1H-pyrazol-3-yl)-5-methyl-2-(1-methyl-1H-imidazol-2-yl)-N-(pyrazin-2-yl)pyrrolo[2,1-f][1,2,4]triazin-4-amine] | 1 to 25 | H* (H* ≥ 100% activation) | H* (H* ≥ 100% activation)
COc1cc(Nc2nc(-c3nccn3C)nn3cc(-c4ccn(C)n4)c(C)c23)ncn1 [Compound 63, N-(6-Methoxypyrimidin-4-yl)-5-methyl-2-(1-methyl-1H-imidazol-2-yl)-6-(1-methyl-1H-pyrazol-3-yl)pyrrolo[2,1-f][1,2,4]triazin-4-amine] | 76 to 100 | H* (H* ≥ 100% activation) | H* (H* ≥ 100% activation)
CCn1ccc(-c2cn3nc(-c4nccn4C)nc(Nc4cc(OC)ncn4)c3c2C)n1 [Compound 64, 6-(1-Ethyl-1H-pyrazol-3-yl)-N-(6-methoxypyrimidin-4-yl)-5-methyl-2-(1-methyl-1H-imidazol-2-yl)pyrrolo[2,1-f][1,2,4]triazin-4-amine] | 76 to 100 | H* (H* ≥ 100% activation) | H* (H* ≥ 100% activation)
COc1cc(Nc2nc(-c3nccn3C)nn3cc(-c4cccc(OC)n4)c(C)c23)ncn1 [Compound 65, 6-(6-Methoxypyridin-2-yl)-N-(6-methoxypyrimidin-4-yl)-5-methyl-2-(1-methyl-1H-imidazol-2-yl)pyrrolo[2,1-f][1,2,4]triazin-4-amine] | 26 to 49 | H* (H* ≥ 100% activation) | H* (H* ≥ 100% activation)
Cc1c(-c2ccn(C(C)C)n2)cn2nc(-c3nccn3C)nc(Nc3nnc(C4CC4)o3)c12 [Compound 67, 5-Cyclopropyl-N-(6-(1-isopropyl-1H-pyrazol-3-yl)-5-methyl-2-(1-methyl-1H-imidazol-2-yl)pyrrolo[2,1-f][1,2,4]triazin-4-yl)-1,3,4-oxadiazol-2-amine] | 26 to 49 | H* (H* ≥ 100% activation) | H* (H* ≥ 100% activation)
Cc1c(-c2ccn(C(C)C)n2)cn2nc(-c3nccn3C)nc(Nc3ccn(C(C)C)n3)c12 [Compound 72, N,6-bis(1-Isopropyl-1H-pyrazol-3-yl)-5-methyl-2-(1-methyl-1H-imidazol-2-yl)pyrrolo[2,1-f][1,2,4]triazin-4-amine] | 50 to 75 | H* (H* ≥ 100% activation) | H* (H* ≥ 100% activation)

The next lines start with results.

inhibition at 20 µM [3] [%] | Compound | % inh of JNK in Panc-1 [1] | % inh of MAPK p38 in Panc-1 [2]
76 to 100 | Cc1c(-c2ccn(C(C)C)n2)cn2nc(-c3nccn3C)nc(Nc3ccn(C)n3)c12 [Compound 61, 6-(1-Isopropyl-1H-pyrazol-3-yl)-5-methyl-2-(1-methyl-1H-imidazol-2-yl)-N-(1-methyl-1H-pyrazol-3-yl)pyrrolo[2,1-f][1,2,4]triazin-4-amine] | H* (H* ≥ 100% activation) | H* (H* ≥ 100% activation)
76 to 100 | COc1ccc(-c2cn3nc(-c4nccn4C)nc(Nc4cc(OC)ncn4)c3c2C)cn1 [Compound 66, 6-(6-Methoxypyridin-3-yl)-N-(6-methoxypyrimidin-4-yl)-5-methyl-2-(1-methyl-1H-imidazol-2-yl)pyrrolo[2,1-f][1,2,4]triazin-4-amine] | H* (H* ≥ 100% activation) | H* (H* ≥ 100% activation)
0 | Cc1c(-c2ccn(C(C)C)n2)cn2nc(-c3nccn3C)nc(Nc3cc(C4CC4)no3)c12 [Compound 69, 3-Cyclopropyl-N-(6-(1-isopropyl-1H-pyrazol-3-yl)-5-methyl-2-(1-methyl-1H-imidazol-2-yl)pyrrolo[2,1-f][1,2,4]triazin-4-yl)isoxazol-5-amine] | H* (H* ≥ 100% activation) | H* (H* ≥ 100% activation)
1 to 25 | Cc1c(-c2ccn(C(C)C)n2)cn2nc(-c3nccn3C)nc(Nc3nc(C4CC4)no3)c12 [Compound 70, 3-Cyclopropyl-N-(6-(1-isopropyl-1H-pyrazol-3-yl)-5-methyl-2-(1-methyl-1H-imidazol-2-yl)pyrrolo[2,1-f][1,2,4]triazin-4-yl)-1,2,4-oxadiazol-5-amine] | H* (H* ≥ 100% activation) | H* (H* ≥ 100% activation)
1 to 25 | COc1ccc(Nc2nc(-c3nccn3C)nn3cc(-c4ccn(C(C)C)n4)c(C)c23)cn1 [Compound 71, 6-(1-Isopropyl-1H-pyrazol-3-yl)-N-(6-methoxypyridin-3-yl)-5-methyl-2-(1-methyl-1H-imidazol-2-yl)pyrrolo[2,1-f][1,2,4]triazin-4-amine] | H* (H* ≥ 100% activation) | H* (H* ≥ 100% activation)
